Data on 15 molecules can be found in patent US12485157B2, “Method of treating COVID-19” (Pfizer Inc., priority 2020, dated 2025).

The structures appear in SMILES notation.

The Ki is the dissociation constant of the complex between target and ligand, obtained from inhibition or displacement.

For the first experiment, the target named is SARS-CoV-2 3CL protease (Severe acute respiratory syndrome coronavirus 2 (2019-nCoV) (SARS-CoV-2), UniProt P0DTD1). Put plainly: SARS-CoV-2 Coronavirus 3C Protease FRET Assay. It is filed as biochemical. The settings on record: FRET assay control inhibitor.
For `COc1cccc2[nH]c(C(=O)N[C@@H](CC(C)C)C(=O)N[C@@H](C[C@@H]3CCNC3=O)C(=O)CO)cc12` [PF-835231, reference compound], the “inhibition of SARS-CoV-2 3CLpro (fluorescent signal reduced)” value is on record as “potent inhibitor”.

The same experiment, now with this note: read-out: 3CL Protease Geometric Mean Ki.
For the molecule `COc1cccc2[nH]c(C(=O)N[C@@H](CC(C)C)C(=O)N[C@@H](C[C@@H]3CCNC3=O)C(=O)COC(=O)c3c(Cl)cccc3Cl)cc12` [Example 9, (3S)-3-({N-[(4-methoxy-1H-indol-2-yl)carbonyl]-L-leucyl}amino)-2-oxo-4-[(3S)-2-oxopyrrolidin-3-yl]butyl 2,6-dichlorobenzoate], the Ki stood at 0.3 nM.

On to `COc1cccc2[nH]c(C(=O)N[C@@H](CC(C)C)C(=O)N[C@@H](C[C@@H]3CCNC3=O)C(=O)COC(=O)c3ccc(C#N)cc3F)cc12` [Example 14, (3S)-3-({N-[(4-methoxy-1H-indol-2-yl)carbonyl]-L-leucyl}amino)-2-oxo-4-[(3S)-2-oxopyrrolidin-3-yl]butyl 4-cyano-2-fluorobenzoate], for which the Ki worked out at 0.2 nM.

With `COc1cccc2[nH]c(C(=O)N[C@@H](CC(C)C)C(=O)N[C@@H](C[C@@H]3CCNC3=O)C(=O)COC(=O)c3c(C)cccc3C)cc12` [Example 10, (3S)-3-({N-[(4-methoxy-1H-indol-2-yl)carbonyl]-L-leucyl}amino)-2-oxo-4-[(3S)-2-oxopyrrolidin-3-yl]butyl 2,6-dimethylbenzoate], the Ki was 3.4 nM.

`COc1cccc2[nH]c(C(=O)N[C@@H](CC(C)C)C(=O)N[C@@H](C[C@@H]3CCNC3=O)C(=O)COC(=O)c3ccc(Cl)cc3)cc12` [Example 8, (3S)-3-({N-[(4-methoxy-1H-indol-2-yl)carbonyl]-L-leucyl}amino)-2-oxo-4-[(3S)-2-oxopyrrolidin-3-yl]butyl 4-chlorobenzoate]: the Ki came out at 18.8 nM.

`COc1cccc2[nH]c(C(=O)N[C@@H](CC(C)C)C(=O)N[C@@H](C[C@@H]3CCNC3=O)C(=O)COC(=O)c3ccccc3C#N)cc12` [Example 15, (3S)-3-({N-[(4-methoxy-1H-indol-2-yl)carbonyl]-L-leucyl}amino)-2-oxo-4-[(3S)-2-oxopyrrolidin-3-yl]butyl 2-cyanobenzoate]: the Ki turned out to be 0.4 nM.

As to `COc1cccc2[nH]c(C(=O)N[C@@H](CC(C)C)C(=O)N[C@@H](C[C@@H]3CCNC3=O)C(=O)COC(=O)c3ccc(C)cc3)cc12` [Example 4, (3S)-3-({N-[(4-methoxy-1H-indol-2-yl)carbonyl]-L-leucyl}amino)-2-oxo-4-[(3S)-2-oxopyrrolidin-3-yl]butyl 4-methylbenzoate], the Ki came to 17.7 nM.

In the case of `COc1cccc2[nH]c(C(=O)N[C@@H](CC(C)C)C(=O)N[C@@H](C[C@@H]3CCNC3=O)C(=O)COC(=O)c3c(F)cccc3F)cc12` [Example 11, (3S)-3-({N-[(4-methoxy-1H-Indol-2-yl)carbonyl]-L-leucyl}amino)-2-oxo-4-[(3S)-2-oxopyrrolidin-3-yl]butyl 2,6-difluorobenzoate], the inhibition constant (Ki) is 1.3 nM.

In the case of `COc1cccc(OC)c1C(=O)OCC(=O)[C@H](C[C@@H]1CCNC1=O)NC(=O)[C@H](CC(C)C)NC(=O)c1cc2c(OC)cccc2[nH]1` [Example 12, (3S)-3-({N-[(4-methoxy-1H-indol-2-yl)carbonyl]-L-leucyl}amino)-2-oxo-4-[(3S)-2-oxopyrrolidin-3-yl]butyl 2,6-dimethoxybenzoate], the Ki was determined as 15.7 nM.

Take `COc1ccc(C(=O)OCC(=O)[C@H](C[C@@H]2CCNC2=O)NC(=O)[C@H](CC(C)C)NC(=O)c2cc3c(OC)cccc3[nH]2)cc1` [Example 7, (3S)-3-({N-[(4-methoxy-1H-indol-2-yl)carbonyl]-L-leucyl}amino)-2-oxo-4-[(3S)-2-oxopyrrolidin-3-yl]butyl 4-methoxybenzoate]: the Ki is 33.4 nM.

Turning to `COc1cccc2[nH]c(C(=O)N[C@@H](CC(C)C)C(=O)N[C@@H](C[C@@H]3CCNC3=O)C(=O)COC(=O)C(C)(C)C)cc12` [Example 2, (3S)-3-({N-[(4-methoxy-1H-indol-2-yl)carbonyl]-L-leucyl}amino)-2-oxo-4-[(3S)-2-oxopyrrolidin-3-yl]butyl pivalate], the Ki worked out at 94.1 nM.

`COc1cccc2[nH]c(C(=O)N[C@@H](CC(C)C)C(=O)N[C@@H](C[C@@H]3CCNC3=O)C(=O)COC(C)=O)cc12` [Example 1, (3S)-3-({N-[(4-methoxy-1H-indol-2-yl)carbonyl]-L-leucyl}amino)-2-oxo-4-[(3S)-2-oxopyrrolidin-3-yl]butyl acetate]: the Ki is 19.4 nM.

On to `COc1cccc2[nH]c(C(=O)N[C@@H](CC(C)C)C(=O)N[C@@H](C[C@@H]3CCNC3=O)C(=O)COC(=O)c3ccc(F)cc3)cc12` [Example 5, (3S)-3-({N-[(4-methoxy-1H-indol-2-yl)carbonyl]-L-leucyl}amino)-2-oxo-4-[(3S)-2-oxopyrrolidin-3-yl]butyl 4-fluorobenzoate], for which the Ki was determined as 16.3 nM.

As for `COc1cccc2[nH]c(C(=O)N[C@@H](CC(C)C)C(=O)N[C@@H](C[C@@H]3CCNC3=O)C(=O)COC(=O)c3ccc(C#N)cc3)cc12` [Example 6, (3S)-3-({N-[(4-methoxy-1H-indol-2-yl)carbonyl]-L-leucyl}amino)-2-oxo-4-[(3S)-2-oxopyrrolidin-3-yl]butyl 4-cyanobenzoate], the Ki was 1.9 nM.

`COc1cccc2[nH]c(C(=O)N[C@@H](CC(C)C)C(=O)N[C@@H](C[C@@H]3CCNC3=O)C(=O)COC(=O)c3ccccc3)cc12` [Example 3, (3S)-3-({N-[(4-methoxy-1H-indol-2-yl)carbonyl]-L-leucyl}amino)-2-oxo-4-[(3S)-2-oxopyrrolidin-3-yl]butyl benzoate]: the Ki stood at 233 nM.
